For the assay, the system named is BDF1 mice, Adenocarcinoma 755 s.c., tumor weight T/C. Put plainly: NCI In Vivo Anticancer Drug Screen. Data for tumor model Adenocarcinoma 755 (subcutaneous) in B6D2F1 (BDF1) mice. The settings on record: endpoint: mean tumor weight, higher = larger tumour. The gist of the method: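 Compound activity was tested in mice carrying transplanted tumors. Survival or tumor size was measured, and each value is the treated-group measurement divided by that of the vehicle-treated control group (T/C).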

The mark [1] stands for this setting: dose: 250.0 mg/kg/injection, schedule: Q01DX011 (ip), vehicle: carboxymethylcellulose (CMC).
Where [2] appears, read: dose: 12.5 mg/kg/injection, schedule: Q01DX011 (ip), vehicle: methylcellulose (MC).
Setting [3] is: dose: 3.1 mg/kg/injection, schedule: Q01DX011 (ip), vehicle: methylcellulose (MC).
[4] abbreviates: dose: 25.0 mg/kg/injection, schedule: Q01DX011 (ip), vehicle: methylcellulose (MC).

SMILES strings stand for the structures. Values joined by “and” are separate entries in the source; they are usually repeats but may differ in a detail not shown here. Identical values can stand only once.

Experimental findings from PubChem BioAssay AID180 (DTP/NCI, 2004) are described below.

`O=c1[nH]cnc2c1ncn2C1CCCC1`: the T/C was 81 % of control (dose: 18.1 mg/kg/injection, schedule: Q01DX011 (ip), vehicle: carboxymethylcellulose (CMC)); 124 % of control (dose: 18.12 mg/kg/injection, schedule: Q01DX011 (ip), vehicle: carboxymethylcellulose (CMC)); 78 % of control (dose: 36.2 mg/kg/injection, schedule: Q01DX011 (ip), vehicle: carboxymethylcellulose (CMC)); 90 % of control (dose: 36.25 mg/kg/injection, schedule: Q01DX011 (ip), vehicle: carboxymethylcellulose (CMC)); 70 % of control (dose: 56.0 mg/kg/injection, schedule: Q01DX001 (ip), vehicle: carboxymethylcellulose (CMC)); 100 % of control and 87 % of control (dose: 72.5 mg/kg/injection, schedule: Q01DX011 (ip), vehicle: carboxymethylcellulose (CMC)). The T/C is 70 % of control (dose: 112.0 mg/kg/injection, schedule: Q01DX001 (ip), vehicle: carboxymethylcellulose (CMC)); 75 % of control and 85 % of control (dose: 145.0 mg/kg/injection, schedule: Q01DX011 (ip), vehicle: carboxymethylcellulose (CMC)); 37 % of control (dose: 225.0 mg/kg/injection, schedule: Q01DX001 (ip), vehicle: carboxymethylcellulose (CMC)).
For `OC(CN1CCCCC1)c1ccc(/C=C/c2ccc(Cl)cc2)cc1` (stereo unspecified), the T/C runs as follows: (dose: 118.0 micrograms/kg/injection, schedule: Q01DX011 (ip), vehicle: methylcellulose (MC)) 40 % of control; (dose: 237.0 micrograms/kg/injection, schedule: Q01DX011 (ip), vehicle: methylcellulose (MC)) 55 % of control; (dose: 475.0 micrograms/kg/injection, schedule: Q01DX011 (ip), vehicle: methylcellulose (MC)) 49 % of control.
Regarding `Nc1cc(C(=O)O)nc(N)n1`, the T/C (dose: 31.0 mg/kg/injection, schedule: Q01DX011 (ip), vehicle: methylcellulose (MC)) is 68 % of control.
Regarding `CC(C)n1cnc2c(Cl)ncnc21`, the T/C is 101 % of control (dose: 4.0 mg/kg/injection, schedule: Q01DX011 (ip), vehicle: carboxymethylcellulose (CMC)); 115 % of control (dose: 8.0 mg/kg/injection, schedule: Q01DX011 (ip), vehicle: carboxymethylcellulose (CMC)); 92 % of control (dose: 16.0 mg/kg/injection, schedule: Q01DX011 (ip), vehicle: carboxymethylcellulose (CMC)); 4 % of control and 11 % of control (dose: 62.0 mg/kg/injection, schedule: Q01DX011 (ip), vehicle: carboxymethylcellulose (CMC)); 5 % of control and 8 % of control (dose: 125.0 mg/kg/injection, schedule: Q01DX011 (ip), vehicle: carboxymethylcellulose (CMC)); 8 % of control under setting [1].
On to `CC(=O)Nc1nc(SCc2ccccc2)c2[nH]cnc2n1`, for which the T/C under setting [2] was 8 % of control.
For `C=CC1OCCN1CC` (stereo unspecified), the T/C (dose: 12.5 mg/kg/injection, schedule: Q01DX011 (ip), vehicle: other) is 106 % of control and the T/C (dose: 50.0 mg/kg/injection, schedule: Q01DX011 (ip), vehicle: other) was 87 % of control.
On to `CC(Cc1ccccc1)NC(=O)CCl` (stereo unspecified), for which the T/C (dose: 37.0 mg/kg/injection, schedule: Q01DX011 (im), vehicle: other) is 68 % of control; the T/C (dose: 37.0 mg/kg/injection, schedule: Q01DX011 (oral), vehicle: other) is 71 % of control; the T/C (dose: 37.0 mg/kg/injection, schedule: Q01DX011 (sc), vehicle: other) is 118 % of control; the T/C (dose: 50.0 mg/kg/injection, schedule: Q01DX011 (im), vehicle: other) was 68 % of control; the T/C (dose: 50.0 mg/kg/injection, schedule: Q01DX011 (oral), vehicle: other) was 106 % of control; the T/C (dose: 50.0 mg/kg/injection, schedule: Q01DX011 (sc), vehicle: other) was 73 % of control. Besides, the T/C was 48 % of control (dose: 75.0 mg/kg/injection, schedule: Q01DX011 (im), vehicle: other); 87 % of control (dose: 75.0 mg/kg/injection, schedule: Q01DX011 (oral), vehicle: other); 63 % of control (dose: 75.0 mg/kg/injection, schedule: Q01DX011 (sc), vehicle: other); 82 % of control (dose: 112.0 mg/kg/injection, schedule: Q01DX011 (oral), vehicle: other).
With `Nc1nsnc1C(=O)O`, the T/C runs as follows: (dose: 93.0 mg/kg/injection, schedule: Q01DX011 (ip), vehicle: carboxymethylcellulose (CMC)) 80 % of control; (dose: 187.0 mg/kg/injection, schedule: Q01DX011 (ip), vehicle: carboxymethylcellulose (CMC)) 98 % of control.
For `CCCCn1cnc2c(SCc3ccccn3)nc(N)nc21`, the T/C reads like this: (dose: 3.6 mg/kg/injection, schedule: Q01DX011 (ip), vehicle: methylcellulose (MC)) 6 % of control; (dose: 7.25 mg/kg/injection, schedule: Q01DX011 (ip), vehicle: methylcellulose (MC)) 2 % of control.
In the case of `CC(=O)[C@H]1[C@H](O)C[C@H]2[C@@H]3CCC4=CC(=O)CC[C@]4(C)[C@@]3(F)[C@@H](O)C[C@@]21C`, the T/C (dose: 100.0 mg/kg/injection, schedule: Q01DX011 (sc), vehicle: steriod suspending solution) was 48 % of control; the T/C (dose: 125.0 mg/kg/injection, schedule: Q01DX011 (oral), vehicle: steriod suspending solution) is 74 % of control; the T/C (dose: 200.0 mg/kg/injection, schedule: Q01DX011 (sc), vehicle: steriod suspending solution) is 38 % of control; the T/C (dose: 250.0 mg/kg/injection, schedule: Q01DX011 (oral), vehicle: steriod suspending solution) is 57 % of control; the T/C (dose: 400.0 mg/kg/injection, schedule: Q01DX011 (sc), vehicle: steriod suspending solution) is 36 % of control; the T/C (dose: 500.0 mg/kg/injection, schedule: Q01DX011 (oral), vehicle: steriod suspending solution) is 62 % of control. Besides, the T/C (dose: 800.0 mg/kg/injection, schedule: Q01DX011 (sc), vehicle: steriod suspending solution) was 26 % of control and the T/C (dose: 1000.0 mg/kg/injection, schedule: Q01DX011 (oral), vehicle: steriod suspending solution) was 58 % of control.
Consider `NC(C=O)C(O)C(O)C(O)CO` (stereo unspecified), for which the T/C runs as follows: under setting [1], 104 % of control and 204 % of control; (dose: 500.0 mg/kg/injection, schedule: Q01DX011 (ip), vehicle: carboxymethylcellulose (CMC)) 225 % of control; (dose: 1000.0 mg/kg/injection, schedule: Q01DX011 (ip), vehicle: carboxymethylcellulose (CMC)) 102 % of control and 110 % of control; (dose: 2000.0 mg/kg/injection, schedule: Q01DX011 (ip), vehicle: methylcellulose (MC)) 89 % of control; (dose: 2500.0 mg/kg/injection, schedule: Q01DX011 (ip), vehicle: methylcellulose (MC)) 72 % of control.
As for `Cn1c(=O)c2[nH]c(/N=N/N3CCN(CCO)CC3)nc2n(C)c1=O`, the T/C runs as follows: (dose: 75.0 mg/kg/injection, schedule: Q01DX011 (ip), vehicle: other) 119 % of control; (dose: 225.0 mg/kg/injection, schedule: Q01DX011 (ip), vehicle: other) 92 % of control.
As to `NC(=O)OCCI`, the T/C is, setting by setting: under setting [3], 47 % of control; under setting [2], 52 % of control and 61 % of control; under setting [4], 31 % of control and 47 % of control; (dose: 50.0 mg/kg/injection, schedule: Q01DX011 (ip), vehicle: methylcellulose (MC)) 7 % of control; (dose: 100.0 mg/kg/injection, schedule: Q01DX011 (ip), vehicle: methylcellulose (MC)) 1 % of control.
`C[N+](C)(C)c1ncnc2c1ncn2C1CCCO1` (stereo unspecified): the T/C is 100 % of control (dose: 18.7 mg/kg/injection, schedule: Q01DX011 (ip), vehicle: saline); 5 % of control (dose: 37.5 mg/kg/injection, schedule: Q01DX011 (ip), vehicle: saline); 2 % of control (dose: 100.0 mg/kg/injection, schedule: Q01DX011 (ip), vehicle: saline).
As to `Nc1nc(SCc2cccc(Br)c2)c2ncn(C3OC(CO)C(O)C3O)c2n1` (stereo unspecified), the T/C was 84 % of control (dose: 1.5 mg/kg/injection, schedule: Q01DX011 (ip), vehicle: methylcellulose (MC)); 62 % of control under setting [3]; 12 % of control and 24 % of control (dose: 6.2 mg/kg/injection, schedule: Q01DX011 (ip), vehicle: methylcellulose (MC)); 1 % of control under setting [2]; 2 % of control under setting [4].
With `Cn1c2c(sc1=O)CCC2`, the T/C by setting is: (dose: 88.0 mg/kg/injection, schedule: Q01DX011 (ip), vehicle: methylcellulose (MC)) 54 % of control; (dose: 175.0 mg/kg/injection, schedule: Q01DX011 (ip), vehicle: methylcellulose (MC)) 80 % of control.

As a reminder, the T/C is the result in the treated group divided by that in the control group, in per cent.
